Laboratory results from patent US20250221413A1, “Use and Preparation Method of Sulfoxamyl, and Oxidation System” (priority 2023, published 2025).
In brackets after ≈: the same amount, converted by molar mass. Several values for one entry are separate records, joined by “and”; a condition that tells them apart may be missing. Identical values can stand only once. Entries after “also recorded” stand apart in the source; their conditions may differ.

Tests used:
[1] = Half-life test (hydrolysis in neutral distilled water, HPLC); type: physicochemical
Description: A 98% sulfoxamyl sample was quantitatively dissolved in neutral distilled water, and samples were taken and injected at certain time intervals under HPLC detection. Data were collected according to the area normalization method based on the integrated sulfoxamyl peak area ratio.

[2] = system: Meloidogyne incognita eggs; assay: Inhibitory effect on hatching of Meloidogyne incognita eggs; type: in vivo
Description: Materials: the tested nematodes were collected from three different areas, namely cucumber crops in Dawenkou Town, Tai'an City, Shandong Province, and were all identified as southern root-knot nematodes (Meloidogyne incognita). The diseased roots were washed, cut into small sections of 0.5 cm to 1 cm, rinsed in 1% NaClO solution for about 30 s to 60 s, and rinsed with 200-mesh and 500-mesh sieves to collect nematode eggs for later use.
The agent was 98% sulfoxamyl technical, and the comparison agents were 96% oxamyl technical and 87% fosthiazate technical.

SD rats [3] = assay: Acute oral toxicity test, single oral fixed-dose procedure; type: in vivo
Experimental: (§1) Materials: the test agent 98% sulfoxamyl technical, batch number 20230708-1, was provided by Ningxia Hugerise Chemical Co., Ltd. Experimental animals: SPF-grade SD rats, half male and half female, weighing 180 g to 220 g, were provided by Jinan Pengyue Experimental Animal Breeding Co., Ltd., license number SCXK (Lu) 20190003. Rearing environment: the rats were housed in an SPF-grade animal room with free access to water and food, a temperature of 20° C. to 25° C., a humidity of 40% to 60%, and a 12 h/12 h light cycle. Feed: conventional pellet feed was provided by Jinan Pengyue Experimental Animal Breeding Co., Ltd.
(§2) The test was conducted in accordance with “Toxicological test methods of pesticides for registration, GB15670.5-2017”, “Acute toxicity test, GB15193.3-2003” and relevant acute toxicity research data.
Methods: a single oral fixed-dose procedure was conducted to preliminarily explore the toxic dose range of sulfoxamyl. LD50 and confidence limits were calculated by using the probability unit method (Bliss method). SD rats were randomly divided into 5 groups, 10 rats in each group, half of them were male and half were female. […] The common ratio value among each dose group was 0.75. After a single oral administration, the mortality rate of the experimental animals was recorded within 24 h and 14 days after administration, while the general condition of the animals was observed, and the food intake and body weight changes were recorded.

SD rats [4] = assay: Acute oral toxicity test, probability unit method (Bliss method), LD50 by Probit regression; type: in vivo; details: for Death count: 24 h
Experimental: as §1, §2
(§3) Methods: a single oral fixed-dose procedure was conducted to preliminarily explore the toxic dose range of sulfoxamyl. LD50 and confidence limits were calculated by using the probability unit method (Bliss method). SD rats were randomly divided into 5 groups, 10 rats in each group, half of them were male and half were female. The dosages administered to each group were 474.61 mg/kg, 632.81 mg/kg, 843.75 mg/kg, 1,125 mg/kg, and 1,500 mg/kg. The common ratio value among each dose group was 0.75. After a single oral administration, the mortality rate of the experimental animals was recorded within 24 h and 14 days after administration, while the general condition of the animals was observed, and the food intake and body weight changes were recorded.
(§4) According to the above test dose, number of animals, number of deaths and other data, SPSS statistical software was used to calculate LD50 by Probit regression, and the results are shown in Table 3.

[5] = as above; type: in vivo, SD rats; details: both sexes, Sprague-Dawley, rat, in vivo, po; SD rats, Probit regression
Experimental: as §1, §2, §3, §4

[6] = Meloidogyne incognita, 168 h, egg hatching, 7 d

CNC(=O)O/N=C(/C(=O)N(C)C)S(C)(=O)=O [Sulfoxamyl, N,N-dimethyl-2-[[[(methylamino)carbonyl]oxy]imino]-2-(methylsulfonyl)acetamide]
time to complete decomposition ([1]; neutral conditions): about 8 h | Changes in ratio of sulfoxamyl peak area under HPLC ([1]; neutral distilled water, 25° C., Time 0 h): 99.86% | Changes in ratio of sulfoxamyl peak area under HPLC ([1]; neutral distilled water, 25° C., Time 0.5 h): 73% | Changes in ratio of sulfoxamyl peak area under HPLC ([1]; neutral distilled water, 25° C., Time 1 h): 63% | Changes in ratio of sulfoxamyl peak area under HPLC ([1]; neutral distilled water, 25° C., Time 2 h): 48% | Changes in ratio of sulfoxamyl peak area under HPLC ([1]; neutral distilled water, 25° C., Time 3 h): 32% | Changes in ratio of sulfoxamyl peak area under HPLC ([1]; neutral distilled water, 25° C., Time 4 h): 20% | Changes in ratio of sulfoxamyl peak area under HPLC ([1]; neutral distilled water, 25° C., Time 5 h): 11% | Changes in ratio of sulfoxamyl peak area under HPLC ([1]; neutral distilled water, 25° C., Time 6 h): 5% | Changes in ratio of sulfoxamyl peak area under HPLC ([1]; neutral distilled water, 25° C., Time 7 h): 4% | Changes in ratio of sulfoxamyl peak area under HPLC ([1]; neutral distilled water, 25° C., Time 8 h): 3% | half-life ([1]; neutral distilled water, neutral aqueous solution, 25° C.): 2 h | Number of hatched eggs/7 d ([2]; 6.25 mg/L, 7 d): 102 and 92 and 96 | Number of unhatched eggs/7 d ([2]; 6.25 mg/L, 7 d): 31 and 25 and 33 | Number of hatched eggs/7 d ([2]; 12.5 mg/L, 7 d): 83 and 85 and 88 | Number of unhatched eggs/7 d ([2]; 12.5 mg/L, 7 d): 32 and 33 and 40 | Number of hatched eggs/7 d ([2]; 25 mg/L, 7 d): 85 and 79 and 86 | Number of unhatched eggs/7 d ([2]; 25 mg/L, 7 d): 45 and 41 and 38 | Number of hatched eggs/7 d ([2]; 50 mg/L, 7 d): 57 and 55 and 49 | Number of unhatched eggs/7 d ([2]; 50 mg/L, 7 d): 81 and 75 and 77 | Number of hatched eggs/7 d ([2]; 100 mg/L, 7 d): 44 and 40 and 42 | Number of unhatched eggs/7 d ([2]; 100 mg/L, 7 d): 93 and 85 and 88 | IC50 [2, 6]: 59.5 µg/mL (≈ 237 µM) | IC90 [2, 6]: 511 µg/mL (≈ 2030 µM) | inhibitory effect on hatching of nematode eggs, in words ([2]; in vivo): desirable inhibitory effect | Main clinical symptom (SD rats [3]; single oral dose 50 mg/kg): Asymptomatic | Death count (SD rats [3]; single oral dose 50 mg/kg, 50 mg/kg): 0/6 | Death count (SD rats [3]; single oral dose 50 mg/kg, listed as sulfoxamyl, 50 mg/kg): no animals die | Main clinical symptom (SD rats [3]; single oral dose 500 mg/kg): Some rats with intense abdominal breathing, | Death count (SD rats [3]; single oral dose 500 mg/kg, 500 mg/kg): 0/6 | Death count (SD rats [3]; single oral dose 500 mg/kg, listed as sulfoxamyl, 500 mg/kg): no animals die | Main clinical symptom (SD rats [3]; single oral dose 1000 mg/kg): Intense abdominal breathing, | Death count (SD rats [3]; single oral dose 1000 mg/kg, 1000 mg/kg): 8/10 | Death count (SD rats [3]; single oral dose 1000 mg/kg, listed as sulfoxamyl, 1000 mg/kg): 8 | Main clinical symptom (SD rats [3]; single oral dose 2000 mg/kg): Intense abdominal breathing, | Death count (SD rats [3]; single oral dose 2000 mg/kg, 2000 mg/kg): 6/6 | Death count (SD rats [3]; single oral dose 2000 mg/kg, listed as sulfoxamyl, 2000 mg/kg): all animals | toxicity level (acute oral) (SD rats [4]; GB15670-1995 classification): low toxic; also recorded: Low Toxicity | Probit Estimation for dose (SD rats [4]; Probability 0.010): 379.474 mg/kg | Probit Estimation for log(dose) (SD rats [4]; Probability 0.010): 2.579 | Probit Estimation for dose (SD rats [4]; Probability 0.020): 415.442 mg/kg | Probit Estimation for log(dose) (SD rats [4]; Probability 0.020): 2.619 | Probit Estimation for dose (SD rats [4]; Probability 0.030): 440.010 mg/kg | Probit Estimation for log(dose) (SD rats [4]; Probability 0.030): 2.643 | Probit Estimation for dose (SD rats [4]; Probability 0.040): 459.445 mg/kg | Probit Estimation for log(dose) (SD rats [4]; Probability 0.040): 2.662 | Probit Estimation for dose (SD rats [4]; Probability 0.050): 475.885 mg/kg | Probit Estimation for log(dose) (SD rats [4]; Probability 0.050): 2.678 | Probit Estimation for dose (SD rats [4]; Probability 0.060): 490.341 mg/kg | Probit Estimation for log(dose) (SD rats [4]; Probability 0.060): 2.690 | Probit Estimation for dose (SD rats [4]; Probability 0.070): 503.377 mg/kg | Probit Estimation for log(dose) (SD rats [4]; Probability 0.070): 2.702 | Probit Estimation for dose (SD rats [4]; Probability 0.080): 515.342 mg/kg | Probit Estimation for log(dose) (SD rats [4]; Probability 0.080): 2.712 | Probit Estimation for dose (SD rats [4]; Probability 0.090): 526.471 mg/kg | Probit Estimation for log(dose) (SD rats [4]; Probability 0.090): 2.721 | Probit Estimation for dose (SD rats [4]; Probability 0.100): 536.928 mg/kg | Probit Estimation for log(dose) (SD rats [4]; Probability 0.100): 2.730 | Probit Estimation for dose (SD rats [4]; Probability 0.150): 582.478 mg/kg | Probit Estimation for log(dose) (SD rats [4]; Probability 0.150): 2.765 | Probit Estimation for dose (SD rats [4]; Probability 0.200): 621.421 mg/kg | Probit Estimation for log(dose) (SD rats [4]; Probability 0.200): 2.793 | Probit Estimation for dose (SD rats [4]; Probability 0.250): 656.898 mg/kg | Probit Estimation for log(dose) (SD rats [4]; Probability 0.250): 2.817 | Probit Estimation for dose (SD rats [4]; Probability 0.300): 690.481 mg/kg | Probit Estimation for log(dose) (SD rats [4]; Probability 0.300): 2.839 | Probit Estimation for dose (SD rats [4]; Probability 0.350): 723.131 mg/kg | Probit Estimation for log(dose) (SD rats [4]; Probability 0.350): 2.859 | Probit Estimation for dose (SD rats [4]; Probability 0.400): 755.539 mg/kg | Probit Estimation for log(dose) (SD rats [4]; Probability 0.400): 2.878 | Probit Estimation for dose (SD rats [4]; Probability 0.450): 788.276 mg/kg | Probit Estimation for log(dose) (SD rats [4]; Probability 0.450): 2.897 | Probit Estimation for dose (SD rats [4]; Probability 0.500): 821.879 mg/kg | Probit Estimation for log(dose) (SD rats [4]; Probability 0.500): 2.915 | Probit Estimation for dose (SD rats [4]; Probability 0.550): 856.914 mg/kg | Probit Estimation for log(dose) (SD rats [4]; Probability 0.550): 2.933 | Probit Estimation for dose (SD rats [4]; Probability 0.600): 894.044 mg/kg | Probit Estimation for log(dose) (SD rats [4]; Probability 0.600): 2.951 | Probit Estimation for dose (SD rats [4]; Probability 0.650): 934.112 mg/kg | Probit Estimation for log(dose) (SD rats [4]; Probability 0.650): 2.970 | Probit Estimation for dose (SD rats [4]; Probability 0.700): 978.282 mg/kg | Probit Estimation for log(dose) (SD rats [4]; Probability 0.700): 2.990 | Probit Estimation for dose (SD rats [4]; Probability 0.750): 1028.295 mg/kg | Probit Estimation for log(dose) (SD rats [4]; Probability 0.750): 3.012 | Probit Estimation for dose (SD rats [4]; Probability 0.800): 1087.001 mg/kg | Probit Estimation for log(dose) (SD rats [4]; Probability 0.800): 3.036 | Probit Estimation for dose (SD rats [4]; Probability 0.850): 1159.674 mg/kg | Probit Estimation for log(dose) (SD rats [4]; Probability 0.850): 3.064 | Probit Estimation for dose (SD rats [4]; Probability 0.900): 1258.055 mg/kg | Probit Estimation for log(dose) (SD rats [4]; Probability 0.900): 3.100 | Main clinical symptom (SD rats [4]; oral 474.61 mg/kg): Asymptomatic | Death count (SD rats [4]; oral 474.61 mg/kg, 474.61 mg/kg): no experimental animals and 0/10 | Main clinical symptom (SD rats [4]; oral 632.81 mg/kg): Intense abdominal breathing, | Death count (SD rats [4]; oral 632.81 mg/kg, 632.81 mg/kg): 3 and 3/10 | Main clinical symptom (SD rats [4]; oral 843.75 mg/kg): Intense abdominal breathing, malaise, drooling, tremors | Death count (SD rats [4]; oral 843.75 mg/kg, 843.75 mg/kg): 6 and 6/10 | Main clinical symptom (SD rats [4]; oral 1125 mg/kg): Intense abdominal breathing, malaise, drooling, tremors | Death count (SD rats [4]; oral 1125 mg/kg, 1125 mg/kg): 7 and 8/10 | Main clinical symptom (SD rats [4]; oral 1500 mg/kg): Intense abdominal breathing, | Death count (SD rats [4]; oral 1500 mg/kg, 1500 mg/kg): all animals and 10/10 | new deaths 14 days after administration compared to 24 h (SD rats [4]; oral, all dose groups): no new deaths | LD50 at 14 days [5]: 822 mg/kg
